Test results reported in US5173481A, “Preparation of specifically substituted cyclodextrins” (The United States of America as represented by the …, priority 1990, dated 1992).
In brackets after ≈: the same amount, converted by molar mass.

How the values were obtained:
[1] = Solubility in water; conditions: for solubility: water
[2] = Solubility in water in the presence of excess toluene; assay type: physicochemical; conditions: excess of toluene added to the aqueous phase; relative to 3.2 mg/ml in water
Experimental: The suspension obtained upon cooling a neutralization of reaction mixture was concentrated to 600 ml and dialyzed for 7 h at room temperature. The retained suspension (.intg.700 ml) was stirred with toluene (10 ml) for 14 h, water (500 ml) was added, stirred for 15 min, and filtered. The residue was suspended in water (1.25 L), stirred for 1 h, and filtered. The combined filtrates were concentrated to 200 ml, refrigerated overnight, the sclid was collected by filtration, and recrystallized from hot water to yield white crystals of the product. Rf 0.25 (1-propanol-water-ethyl acetate-ammonium hydroxide, 6:3:1:1), FIG. 1. M.P. 292°-293° C. MS (FAB+) m/e 1193.2 (M+H^+), 1210.3 (M+H2 O). MS (FAB-) m/e 1191.1 (M-H^+), 1210.2 (M+H2 O). MS (^252 Cf) m/e 1215.8 (M+Na^+). ^1 H-NMR (D2 O) δ5.30-5.23 and 5.17- 5.05 (m, 7H, H-1), 4.16-3.40 (m, 45H), 1.17 (d, J=6.42, 3H, CH3). Anal. for C45 H76 O36 ·3H2 O; calcd. C 43.30, H 6.58; found C 43.31, H 6.43.

solubility [1] | Molecule | further results
 | CC(O)CO[C@H]1[C@H]2O[C@H]3[C@H](O)[C@@H](O)[C@@H](O[C@H]4[C@H](O)[C@@H](O)[C@@H](O[C@H]5[C@H](O)[C@@H](O)[C@@H](O[C@H]6[C@H](O)[C@@H](O)[C@@H](O[C@H]7[C@H](O)[C@@H](O)[C@@H](O[C@H]8[C@H](O)[C@@H](O)[C@@H](O[C@@H]([C@@H]1O)[C@@H](CO)O2)O[C@@H]8CO)O[C@@H]7CO)O[C@@H]6CO)O[C@@H]5CO)O[C@@H]4CO)O[C@@H]3CO (stereo partly drawn) [2-O-(2-hydroxypropyl)-β-cyclodextrin] | solubility (qualitative) ([1]; inferred as probable reason for easy isolation): very low solubility
7500 µg/mL (≈ 6.29 mM) | C[C@@H](O)CO[C@H]1[C@H]2O[C@H]3[C@H](O)[C@@H](O)[C@@H](O[C@H]4[C@H](O)[C@@H](O)[C@@H](O[C@H]5[C@H](O)[C@@H](O)[C@@H](O[C@H]6[C@H](O)[C@@H](O)[C@@H](O[C@H]7[C@H](O)[C@@H](O)[C@@H](O[C@H]8[C@H](O)[C@@H](O)[C@@H](O[C@@H]([C@@H]1O)[C@@H](CO)O2)O[C@@H]8CO)O[C@@H]7CO)O[C@@H]6CO)O[C@@H]5CO)O[C@@H]4CO)O[C@@H]3CO [2-O-[(R)-2'-Hydoxypropy]-β-cyclodextrin] | 
12000 µg/mL (≈ 9.93 mM) | OC[C@H](O)CO[C@H]1[C@H]2O[C@H]3[C@H](O)[C@@H](O)[C@@H](O[C@H]4[C@H](O)[C@@H](O)[C@@H](O[C@H]5[C@H](O)[C@@H](O)[C@@H](O[C@H]6[C@H](O)[C@@H](O)[C@@H](O[C@H]7[C@H](O)[C@@H](O)[C@@H](O[C@H]8[C@H](O)[C@@H](O)[C@@H](O[C@@H]([C@@H]1O)[C@@H](CO)O2)O[C@@H]8CO)O[C@@H]7CO)O[C@@H]6CO)O[C@@H]5CO)O[C@@H]4CO)O[C@@H]3CO [2-O-[(S)-2', 3'-Dihydroxypropyl-β-cyclodextrin] | 
3200 µg/mL (≈ 2.68 mM) | C[C@H](O)CO[C@H]1[C@H]2O[C@H]3[C@H](O)[C@@H](O)[C@@H](O[C@H]4[C@H](O)[C@@H](O)[C@@H](O[C@H]5[C@H](O)[C@@H](O)[C@@H](O[C@H]6[C@H](O)[C@@H](O)[C@@H](O[C@H]7[C@H](O)[C@@H](O)[C@@H](O[C@H]8[C@H](O)[C@@H](O)[C@@H](O[C@@H]([C@@H]1O)[C@@H](CO)O2)O[C@@H]8CO)O[C@@H]7CO)O[C@@H]6CO)O[C@@H]5CO)O[C@@H]4CO)O[C@@H]3CO [2-O-[(S)-2'-Hydroxypropyl]-β-cyclodextrin] | solubility in water with excess of toluene added [2]: only insignificantly changed
 | Mono[(S)-2-Hydroxypropyl]-α-Cyclodextrin | solubility in water: > 50%

Molecule | solubility [1] | further results
CC(O)CO[C@H]1[C@H]2O[C@H]3[C@H](O)[C@@H](O)[C@@H](O[C@H]4[C@H](O)[C@@H](O)[C@@H](O[C@H]5[C@H](O)[C@@H](O)[C@@H](O[C@H]6[C@H](O)[C@@H](O)[C@@H](O[C@H]7[C@H](O)[C@@H](O)[C@@H](O[C@H]8[C@H](O)[C@@H](O)[C@@H](O[C@@H]([C@@H]1O)[C@@H](CO)O2)O[C@@H]8CO)O[C@@H]7CO)O[C@@H]6CO)O[C@@H]5CO)O[C@@H]4CO)O[C@@H]3CO (stereo partly drawn) [2-O-[(RS)-2'-Hydroxypropyl]-β-cyclodextrin] | 4000 µg/mL (≈ 3.35 mM) | 
